From PubChem BioAssay (NCI)
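Values below derive from 48-hour exposures of cells grown in 96-well plates, with endpoints linearly interpolated between the two concentrations bracketing the appropriate inhibition level. TGI is the concentration that stops growth completely.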

What was measured:
Test in all cases: growth of human tumour cells (NCI), 48 h
NCI-H522 lung = test system: NCI-H522 lung
A549 NSCLC = test system: A549 NSCLC
COLO 205 colon = test system: COLO 205 colon
HS 578T breast = test system: HS 578T breast
LOX IMVI melanoma = test system: LOX IMVI melanoma
BT-549 breast = test system: BT-549 breast
CAKI-1 renal = test system: CAKI-1 renal
SF-295 CNS = test system: SF-295 CNS
HCC-2998 colon = test system: HCC-2998 colon
UACC-257 melanoma = test system: UACC-257 melanoma

Structure (SMILES) | TGI (NCI-H522 lung) [µM] | TGI (A549 NSCLC) [µM] | TGI (COLO 205 colon) [µM] | TGI (HS 578T breast) [µM] | TGI (LOX IMVI melanoma) [µM] | TGI (BT-549 breast) [µM] | TGI (CAKI-1 renal) [µM] | TGI (SF-295 CNS) [µM] | TGI (HCC-2998 colon) [µM] | TGI (UACC-257 melanoma) [µM]
COc1cc(Nc2ccc3c(c2)CCC3)nc(OC)n1 | 84.5 | > 100 | > 100 | 42.6 | > 100 | > 100 | > 100 | > 100 | 61.6 | > 100
COC(=O)c1ccccc1CC1Cc2cccc(C)c2C1=O (stereo not given) | 57.2 | > 100 | 39.3 | > 100 | 39.6 | > 100 | > 100 | > 100 | > 100 | 73.3
O=C(O)C(O)C(O)C(O)C(O)CO (stereo not given) | > 100 | > 100 | > 100 | > 100 | > 100 | > 100 | > 100 | > 100 | > 100 | > 100
OC(C#CCN1CCCC1)(c1ccccc1)c1ccccc1Cl (stereo not given) | 41.6 | > 100 | 25 | 73.6 | 33.4 | > 100 | 93.6 | 45.8 | 40.4 | 40.3
CC(C)Oc1cccc(N2C(=NCc3c[nH]c4ccccc34)Nc3ccncc3S2(=O)=O)c1 | 87.2 | > 100 | 29.4 | 81.6 | > 100 | > 100 | > 100 | > 100 | 97.9 | > 100
CC1=C(C#N)c2nc3ccccc3n2C(=O)C1(C)CCO (stereo not given) | > 100 | > 100 | > 100 | > 100 | > 100 | > 100 | > 100 | > 100 | > 100 | > 100
CC(C)N1CCN(c2ccc(OCC3COC(Cn4cncn4)(c4ccc(Cl)cc4Cl)O3)cc2)CC1 (stereo not given) | 30.4 | > 52 | 3.69 | 31 | 30.2 | 30 | 40.3 | 26.6 | 21.1 | 3.77
C/C1=C\[C@H](C)C[C@H](C)OC(=O)[C@H](C)NC(=O)[C@@H](Cc2ccc(O)c(Br)c2)N(C)C(=O)[C@H](C)NC(=O)[C@@H](C)C1 | 1.35 | > 25 | > 25 | 3.76 | 0.394 | 4.12 | 0.0274 | 4.9 | > 25 | 14.8
O=C(CN1C(=O)CC(c2ccccc2)(c2ccccc2)C1=O)N1CCN(CCO)CC1 | > 100 | > 100 | > 100 | > 100 | > 100 | > 100 | > 100 | > 100 | > 100 | > 100
CC(C)(C)OC(=O)NC(CSSCC(NC(=O)OC(C)(C)C)C(=O)O)C(=O)O (stereo not given) | > 100 | > 100 | > 100 | > 100 | > 100 | > 100 | > 100 | > 100 | > 100 | > 100
O=C(O)c1cccc(S(=O)(=O)NN2C(=O)CSC2c2ccc(Cl)cc2Cl)c1 (stereo not given) | 91.4 | > 100 | > 100 | 58.4 | > 100 | > 100 | > 100 | > 100 | > 100 | > 100
CCOC(=O)/C(C(C)=O)=C(\OC(C)=O)c1ccncc1C(=O)O | > 100 | > 100 | > 100 | > 100 | > 100 | > 100 | > 100 | > 100 | > 100 | > 100
COc1ccc(C(=O)NCCN(C)C)c2nc3ccccc3cc12 | 2.6 | 2.4 | 2.57 | 4.91 | 1.74 | 14.4 | 7.59 | 6.34 | 8.34 | 4.02
O=C(CCSC1=NCCCN1)c1ccc(F)cc1 | 3.86 | 40.3 | 11.8 | 62.6 | 45.1 | 35.7 | 46.9 | 97.3 | 36.5 | 36.5
Clc1ccc(C=NC23CC4CC(CC(C4)C2)C3)c(Cl)c1 | > 10 | > 10 | > 10 | > 10 | > 10 | > 10 | > 10 | > 10 | > 10 | > 10
Cn1c2ccccc2c2c(=S)c3ccccc3ccc21 | > 100 | > 100 | > 100 | > 100 | > 100 | > 100 | > 100 | > 100 | > 100 | > 100
O=[N+]([O-])c1cc2oc(CSc3ccccc3)nc2cc1Cl | > 100 | > 100 | 44.9 | > 100 | > 100 | 80.8 | > 100 | 93.9 | 64.5 | 82.2
CN1CC[C@]2(c3cccc(O)c3)CC(=O)/C(=C/c3ccccc3)[C@@H]1C2 | 11.2 | 13.2 | 18.1 | 13 | 4.71 | 7.27 | 6.04 | 13.2 | 7.16 | 11.7
O=C1/C(=C/c2ccc(Cl)cc2)CCCc2ccccc21 | 26.5 | 60 | 34.9 | 28.1 | 31 | 47.3 | > 100 | 31.5 | 36.7 | 77.7
C[C@@H]1CCC2[C@@H](C)[C@@H](O[C@H]3O[C@@H]4O[C@@]5(C)CCC6[C@H](C)CCC([C@H]3C)[C@]64OO5)O[C@@H]3O[C@@]4(C)CCC1[C@@]23OO4 (stereo not given in full) | > 25 | > 25 | > 25 | > 25 | > 25 | > 25 | > 25 | > 25 | > 25 | > 25
O=c1onc2n1-c1cc(Cl)ccc1C(=S)N1CSCC21 (stereo not given) | > 100 | > 100 | > 100 | > 100 | > 100 | > 100 | > 100 | > 100 | > 100 | > 100
CC(C)(C)c1ccc2c(c1)C#Cc1cc3c(cc1OCCCO2)C#Cc1cc(C(C)(C)C)ccc1OCCCO3 | > 100 | > 100 | > 100 | > 100 | > 100 | 3.39 | > 100 | > 100 | > 100 | > 100
CCN(C(=O)N[C@@H](C)C(=O)N[C@@H](Cc1ccccc1)C(=O)OC)c1ccccc1 | > 100 | > 100 | > 100 | > 100 | > 100 | > 100 | > 100 | > 100 | > 100 | > 100
c1ccc(C(C(=Nc2ccc(Cc3ccc(N=C(C(c4ccccc4)c4ccccc4)N4CC4)cc3)cc2)N2CC2)c2ccccc2)cc1 | 19.8 | 22.3 | 16.7 | 35.7 | 18.9 | 24.7 | 24.1 | 27.5 | 23.6 | 25.6
CC(C)(CO)CNc1nc(N)nc(Cl)c1/C=N/O | > 100 | > 100 | > 100 | > 100 | > 100 | > 100 | > 100 | > 100 | > 100 | > 100
